Test results reported in ChEMBL document CHEMBL5725332, “Quinazoline derivative” (2017).

test: Luciferase Assay: Using ONE-Glo Luciferase Assay System (Promega Corporation, No. E6110), the luciferase activity of the cells in the wells was measured by a microplate reader (Synergy H1, BioTek Instruments, Inc.) An IC50 value was calculated from the luminescence intensity of each compound concentration, supposing that the luminescence intensity of a group with no addition of the compound and with Wnt-3a stimulation was 100%, and that the luminescence intensity of a group with no addition of the compound and with no Wnt-3a stimulation was 0%.; details: Homo sapiens

| IC50 | Compound |
| --- | --- |
| < 300 nM | O[C@H]1CC[C@@H](Oc2cccc3cnc(Nc4ccc5nc[nH]c5c4)nc23)CC1 |
| < 300 nM | OCc1n[nH]c2cc(Nc3ncc4ccc(F)c(O[C@H]5CC[C@@H](O)CC5)c4n3)ccc12 |
| < 300 nM | O[C@H]1CC[C@@H](Oc2c(F)ccc3cnc(Nc4ccc5ncsc5c4)nc23)CC1 |
| in the range around 650 nM | Cc1ccc2cnc(Nc3ccc4nc[nH]c4c3)nc2c1O[C@H]1CC[C@@H](O)CC1 |
| in the range around 2000 nM | Cc1nc2c(Br)cc(Nc3ncc4cccc(O[C@H]5CC[C@@H](O)CC5)c4n3)cc2[nH]1 |
| < 300 nM | O[C@H]1CC[C@@H](Oc2cccc3cnc(Nc4ccnc5ccccc45)nc23)CC1 |
| < 300 nM | O[C@H]1CC[C@@H](Oc2c(F)ccc3cnc(Nc4ccc5ncccc5c4)nc23)CC1 |
| < 300 nM | O[C@H]1CC[C@@H](Oc2cccc3cnc(Nc4ccc5scnc5c4)nc23)CC1 |
| in the range around 650 nM | O[C@H]1CC[C@@H](Oc2cccc3cnc(Nc4cccc5cnccc45)nc23)CC1 |
| < 300 nM | O[C@H]1CC[C@@H](Oc2c(Br)ccc3cnc(Nc4ccc5nc[nH]c5c4)nc23)CC1 |
| in the range around 650 nM | Cc1nc2c(C)cc(Nc3ncc4cccc(O[C@H]5CC[C@@H](O)CC5)c4n3)cc2[nH]1 |
| in the range around 650 nM | Cc1cc2nc[nH]c2cc1Nc1ncc2cccc(O[C@H]3CC[C@@H](O)CC3)c2n1 |
| in the range around 650 nM | O[C@H]1CC[C@@H](Oc2cccc3cnc(Nc4ccnc5cc(F)ccc45)nc23)CC1 |
| in the range around 2000 nM | O[C@H]1CC[C@@H](Oc2cccc3cnc(Nc4ccc5nc(C(F)(F)F)[nH]c5c4)nc23)CC1 |
| in the range around 650 nM | C[C@H](O)c1nc2ccc(Nc3ncc4cccc(O[C@H]5CC[C@@H](O)CC5)c4n3)cc2[nH]1 |
| in the range around 650 nM | Cc1ccc2cc(Nc3ncc4cccc(O[C@H]5CC[C@@H](O)CC5)c4n3)ccc2n1 |
| in the range around 650 nM | Cc1nc2ccc(Nc3ncc4ccc(Br)c(O[C@H]5CC[C@@H](O)CC5)c4n3)cc2[nH]1 |
| in the range around 650 nM | O[C@H]1CC[C@@H](Oc2cccc3cnc(Nc4ccc5cnccc5c4)nc23)CC1 |
| in the range around 650 nM | COCc1nc2ccc(Nc3ncc4cccc(O[C@H]5CC[C@@H](O)CC5)c4n3)cc2[nH]1 |
| < 300 nM | OCc1cc(Nc2ncc3cccc(O[C@H]4CC[C@@H](O)CC4)c3n2)cc2[nH]cnc12 |
| in the range around 650 nM | O[C@H]1CC[C@@H](Oc2cccc3cnc(Nc4ccc5ncccc5c4)nc23)CC1 |
| in the range around 2000 nM | O[C@H]1CC[C@@H](Oc2cccc3cnc(Nc4ccc5ccncc5c4)nc23)CC1 |
| in the range around 650 nM | OCc1nc2cc(Nc3ncc4cccc(O[C@H]5CC[C@@H](O)CC5)c4n3)ccc2[nH]1 |
| < 300 nM | O[C@H]1CC[C@@H](Oc2cccc3cnc(Nc4ccc5[nH]c(CN6CCCC6)nc5c4)nc23)CC1 |
| in the range around 650 nM | COc1ccc2c(Nc3ncc4cccc(O[C@H]5CC[C@@H](O)CC5)c4n3)ccnc2c1 |
| in the range around 650 nM | O[C@H]1CC[C@@H](Oc2cc(F)cc3cnc(Nc4ccc5nc[nH]c5c4)nc23)CC1 |
